From patent US20260240869A1, “ANTIPSEUDOMONAL FUSIDIC ACID COMPOUNDS” (priority 2022, published 2026)
Converted amounts (≈) assume the structure as drawn. Like-named read-outs stand apart in the source and are kept apart here.

Assays:
[1] = test system: clinical isolates of P. aeruginosa; test: MIC against panel of clinical isolates of P. aeruginosa; assay type: cell-based, Pseudomonas aeruginosa; settings: for MIC: Pseudomonas aeruginosa, read-out: MIC
Description: (§1) Antimicrobial Susceptibility Tests. Susceptibility testing was performed in biological triplicate, using the microdilution broth method as outlined by the Clinical and Laboratory Standards Institute. Bacteria were cultured with cation-adjusted Meuller-Hinton broth (Sigma-Aldrich; catalogue number: 90922) or Luria-Bertani (LB) broth (Lennox) in round-bottom 96-well plates (Corning; catalogue number: 3788).

[2] = test system: hyperporinated P. aeruginosa A6 efflux deficient strain (PAO1 pore-A6); test: microbe, parasite or virus in culture; assay type: cell-based; settings: Pseudomonas aeruginosa, PAO1, read-out: MIC against PAO1 pore-A6
Description: as §1

CC(=O)O[C@H]1C[C@@]2(C)[C@@H](C[C@@H](O)[C@H]3[C@@]4(C)CC[C@@H](O)[C@@H](C)[C@@H]4CC[C@@]32C)/C1=C(\CCC=C(C)C)C(=O)O [FA, Fusidic acid]
activity (MIC) against a panel of 75 clinical isolates of P. aeruginosa [1]: essentially no antibacterial activity | MIC ([1]; AR Bank Isolate # 0054): > 1020 µg/mL | MIC ([1]; AR Bank Isolate # 0064): > 1020 µg/mL | MIC ([1]; AR Bank Isolate # 0090): > 1020 µg/mL | MIC ([1]; AR Bank Isolate # 0092): > 1020 µg/mL | MIC ([1]; AR Bank Isolate # 0095): > 1020 µg/mL | MIC ([1]; AR Bank Isolate # 0100): > 1020 µg/mL | MIC ([1]; AR Bank Isolate # 0103): > 1020 µg/mL | MIC ([1]; AR Bank Isolate # 0110): > 1020 µg/mL | MIC ([1]; AR Bank Isolate # 0229): > 1020 µg/mL | MIC ([1]; AR Bank Isolate # 0230): > 1020 µg/mL | MIC ([1]; AR Bank Isolate # 0231): > 1020 µg/mL | MIC ([1]; AR Bank Isolate # 0232): > 1020 µg/mL | MIC ([1]; AR Bank Isolate # 0233): > 1020 µg/mL | MIC ([1]; AR Bank Isolate # 0234): 1020 µg/mL (≈ 1980 µM) | MIC ([1]; AR Bank Isolate # 0235): > 1020 µg/mL | MIC ([1]; AR Bank Isolate # 0236): > 1020 µg/mL | MIC ([1]; AR Bank Isolate # 0237): > 1020 µg/mL | MIC ([1]; AR Bank Isolate # 0239): > 1020 µg/mL | MIC ([1]; AR Bank Isolate # 0240): > 1020 µg/mL | MIC ([1]; AR Bank Isolate # 0241): > 1020 µg/mL | MIC ([1]; AR Bank Isolate # 0242): > 1020 µg/mL | MIC ([1]; AR Bank Isolate # 0243): > 1020 µg/mL | MIC ([1]; AR Bank Isolate # 0244): > 1020 µg/mL | MIC ([1]; AR Bank Isolate # 0245): > 1020 µg/mL | MIC ([1]; AR Bank Isolate # 0246): 1020 µg/mL (≈ 1980 µM) | MIC ([1]; AR Bank Isolate # 0248): > 1020 µg/mL | MIC ([1]; AR Bank Isolate # 0250): > 1020 µg/mL | MIC ([1]; AR Bank Isolate # 0252): > 1020 µg/mL | MIC ([1]; AR Bank Isolate # 0254): > 1020 µg/mL | MIC ([1]; AR Bank Isolate # 0265): > 1020 µg/mL | MIC ([1]; AR Bank Isolate # 0763): > 1020 µg/mL | MIC ([1]; AR Bank Isolate # 0767): > 1020 µg/mL | MIC ([1]; AR Bank Isolate # 0769): > 1020 µg/mL | MIC ([1]; AR Bank Isolate # 0772): > 1020 µg/mL | MIC ([1]; Carle Isolate ID # Cl-02): 1020 µg/mL (≈ 1980 µM) | MIC ([1]; Carle Isolate ID # Cl-03): 1020 µg/mL (≈ 1980 µM) | MIC ([1]; Carle Isolate ID # Cl-04): > 1020 µg/mL | MIC ([1]; Carle Isolate ID # Cl-05): > 1020 µg/mL | MIC ([1]; Carle Isolate ID # Cl-06): > 1020 µg/mL | MIC ([1]; Carle Isolate ID # Cl-07): > 1020 µg/mL | MIC ([1]; Carle Isolate ID # Cl-08): > 1020 µg/mL | MIC ([1]; Carle Isolate ID # Cl-09): > 1020 µg/mL | MIC ([1]; Carle Isolate ID # Cl-10): > 1020 µg/mL | MIC ([1]; Carle Isolate ID # Cl-11): > 1020 µg/mL | MIC ([1]; Carle Isolate ID # Cl-12): > 1020 µg/mL | MIC ([1]; Carle Isolate ID # Cl-13): > 1020 µg/mL | MIC ([1]; Carle Isolate ID # Cl-14): > 1020 µg/mL | MIC ([1]; Carle Isolate ID # Cl-15): > 1020 µg/mL | MIC ([1]; Carle Isolate ID # Cl-19): > 1020 µg/mL | MIC ([1]; Cubist Strain ID # 996): > 1020 µg/mL | MIC ([1]; Cubist Strain ID # 997): > 1020 µg/mL | MIC ([1]; Cubist Strain ID # 998): 1020 µg/mL (≈ 1980 µM) | MIC ([1]; Cubist Strain ID # 999): > 1020 µg/mL | MIC ([1]; Cubist Strain ID # 1000): > 1020 µg/mL | MIC ([1]; Cubist Strain ID # 1001): > 1020 µg/mL | MIC ([1]; Cubist Strain ID # 1174): > 1020 µg/mL | MIC ([1]; Cubist Strain ID # 1175): > 1020 µg/mL | MIC ([1]; Cubist Strain ID # 1176): > 1020 µg/mL | MIC ([1]; Cubist Strain ID # 1280): > 1020 µg/mL | MIC ([1]; Cubist Strain ID # 1282): > 1020 µg/mL | MIC ([1]; Cubist Strain ID # 1283): > 1020 µg/mL | MIC ([1]; Cubist Strain ID # 1284): > 1020 µg/mL | MIC ([1]; Cubist Strain ID # 1586): > 1020 µg/mL | MIC ([1]; Cubist Strain ID # 1590): > 1020 µg/mL | MIC ([1]; Cubist Strain ID # 1591): > 1020 µg/mL | MIC ([1]; Cubist Strain ID # 1592): > 1020 µg/mL | MIC ([1]; Cubist Strain ID # 1905): > 1020 µg/mL | MIC ([1]; Cubist Strain ID # 1906): > 1020 µg/mL | MIC ([1]; Cubist Strain ID # 2242): > 1020 µg/mL | MIC ([1]; Cubist Strain ID # 2243): > 1020 µg/mL | MIC ([1]; Cubist Strain ID # 2244): > 1020 µg/mL | MIC ([1]; Other strains (ref.) 1113): > 1020 µg/mL | MIC ([1]; Other strains (ref.) 1727): > 1020 µg/mL | MIC [2]: 4 µg/mL (≈ 7.74 µM)
